Where “and” joins values, the source holds several entries; their conditions need not be identical. Equal entries are not always repeated. Where two headings read alike, the source gives them in different places.
What was measured:
Type in all cases: biochemical
[1] = molecular target: T1, cloned human mu opioid receptor (Homo sapiens, UniProt P35372); assay: GTP-γ-S Binding Assay, mu opioid receptor (Table 1: Receptor Binding); conditions: membranes from cells expressing cloned human mu receptor
T1 construct: expressed in transfected cells

[2] = molecular target: T2, cloned human delta opioid receptor (Homo sapiens, UniProt P41143); assay: GTP-γ-S Binding Assay, delta opioid receptor (Table 1: Receptor Binding); conditions: membranes from cells expressing cloned human delta receptor
T2 construct: expressed in transfected cells
Procedure: The functional antagonist potency (Kb) of the sample compounds was determined using the GTPγS binding assay. GTPgS-based functional assays provide an in vitro measure of the activity of opioid agonists and antagonists. Opioid reference compounds or test compound are incubated with membrane homogenate from cells expressing the cloned human mu, kappa or delta opioid receptor and radiolabeled [35S]GTPgS. If the compound activates the opioid receptor, an increase in the binding of radiolabeled GTPgS is observed. […] These tests provide an in vitro measurement of the activity of the compound at human opioid receptors. GTP-γ-S Binding Assay
An SPA-based GTP-γ-S assay format was developed based on previous opioid (Emmerson et al., J. Pharm Exp Ther 278, 1121, 1996; Horng et al., Society for Neuroscience Abstracts, 434.6, 2000) and muscarinic (DeLapp et al., JPET 289, 946, 1999) assay formats. Membranes were resuspended in 20 mM HEPES, 100 mM NaCl, 5 mM MgCl2, 1 mM DTT, and 1 mM EDTA. Fifty (50) […], of GTP-γ-[35S], compound; membrane suspension (20 microgram/well), and wheat germ agglutinin coated SPA beads (1 mg/well) were added to clear bottom 96 well assay plates. GDP ([…]) was added to the membrane solution prior to addition to the assay plates. Plates were sealed and incubated for four hours at room temperature then placed in a refrigerator overnight to allow the beads to settle. Signal stability at 4° C. was determined to be >6O hours. Plates were warmed to room temperature and counted in a Wallac Microbeta scintillation counter. For antagonist assays, specific agonists were added at the following concentrations: (MOR) DAMGO 1 micromolar, (DOR) DPDPE 30 nM, (KOR) U69593 300 nM. Kb's were determined by Cheng-Prusoff equation (see Cheng and Prusoff, Biochem. Pharmacol. 22, 3099, 1973).

[3] = molecular target: T3, cloned human kappa opioid receptor (Homo sapiens, UniProt P41145); assay: GTP-γ-S Binding Assay, kappa opioid receptor (Table 1: Receptor Binding); conditions: membranes from cells expressing cloned human kappa receptor
T3 construct: expressed in transfected cells

[4] = read-out: Receptor Binding (Ki, nM) Mu

T3 sequence (P41145 whole entry): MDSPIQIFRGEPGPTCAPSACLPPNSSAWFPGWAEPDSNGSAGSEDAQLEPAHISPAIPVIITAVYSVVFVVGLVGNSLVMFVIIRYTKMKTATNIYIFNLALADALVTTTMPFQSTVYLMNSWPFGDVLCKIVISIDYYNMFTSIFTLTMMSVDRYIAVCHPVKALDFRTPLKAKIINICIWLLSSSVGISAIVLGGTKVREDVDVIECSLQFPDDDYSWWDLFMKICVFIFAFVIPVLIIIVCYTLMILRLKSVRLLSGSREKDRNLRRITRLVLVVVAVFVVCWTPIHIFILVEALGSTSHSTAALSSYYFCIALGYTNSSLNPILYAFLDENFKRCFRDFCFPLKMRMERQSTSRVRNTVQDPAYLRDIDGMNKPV
T1 sequence (P35372 whole entry): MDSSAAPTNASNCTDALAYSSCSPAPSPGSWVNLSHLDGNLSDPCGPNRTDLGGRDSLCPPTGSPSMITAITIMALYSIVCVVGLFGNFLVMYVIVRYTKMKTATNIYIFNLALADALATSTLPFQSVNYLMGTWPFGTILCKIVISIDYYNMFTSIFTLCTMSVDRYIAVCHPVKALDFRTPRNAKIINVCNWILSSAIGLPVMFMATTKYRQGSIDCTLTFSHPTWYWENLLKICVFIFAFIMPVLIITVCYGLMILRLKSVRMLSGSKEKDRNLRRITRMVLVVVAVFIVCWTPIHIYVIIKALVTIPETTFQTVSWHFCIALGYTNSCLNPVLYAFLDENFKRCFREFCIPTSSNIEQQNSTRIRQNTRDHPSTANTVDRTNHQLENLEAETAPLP
T2 sequence (P41143 whole entry): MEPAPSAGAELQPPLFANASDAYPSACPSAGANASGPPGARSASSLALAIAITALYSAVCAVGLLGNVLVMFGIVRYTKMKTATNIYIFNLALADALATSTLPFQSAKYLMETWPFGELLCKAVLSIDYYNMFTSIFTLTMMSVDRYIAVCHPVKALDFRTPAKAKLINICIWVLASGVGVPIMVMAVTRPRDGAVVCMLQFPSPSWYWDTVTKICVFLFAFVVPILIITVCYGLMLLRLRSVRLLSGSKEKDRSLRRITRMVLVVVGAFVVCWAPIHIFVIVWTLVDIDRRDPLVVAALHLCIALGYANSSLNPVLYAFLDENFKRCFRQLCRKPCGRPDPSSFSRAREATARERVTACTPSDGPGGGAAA

Ki [1, 4] | Ki [2] [nM] | Ki [3] [nM] | Compound | Ki ([1]; Receptor Binding (Ki, nM) Mu) [nM]
726 nM | 3040 | > 5000 | NC(=O)c1ccc(Sc2ccc(CNCC3CC3)cc2)nc1 [Example 10, 6-{4-[(Cyclopropylmethyl-amino)-methyl]-phenylsulfanyl}-nicotinamide] | 
563 nM | 3520 | 2440 | CC(C)CCNCc1ccc(Sc2ccc(C(N)=O)cn2)cc1 [Example 13, 6-{4-[(3-Methyl-butylamino)-methyl]-phenylsulfanyl}-nicotinamide] | 
86.4 nM | 714 | 1020 | NC(=O)c1ccc(S(=O)(=O)c2ccc(CNCCc3ccccc3)cc2)cc1 [Example 14, 4-[4-(Phenethylamino-methyl)-benzenesulfonyl]-benzamide] | 
292 nM | 1820 | 654 | NC(=O)c1ccc([S+]([O-])c2ccc(CNCCc3ccccc3)cc2)cc1 (stereo not shown) [Example 15, 4-[4-(Phenethylamino-methyl)-benzenesulfinyl]-benzamide] | 
1350 nM | > 5000 | 761 | NC(=O)c1ccc(Nc2ccc(CCNCc3ccccc3)cc2)nc1 [Example 17, 6-[4-(2-Benzylamino-ethyl)-phenylamino]-nicotinamide] | 
48.7 nM | 278 | 466 | NC(=O)c1ccc(Nc2ccc(CCNCC3CCCCC3)cc2)nc1 [Example 18, 6-{4-[2-(Cyclohexylmethyl-amino)-ethyl]-phenylamino}-nicotinamide] | 
73.2 nM | 537 | 402 | NC(=O)c1ccc(Nc2ccc(CNCc3ccccc3)cc2)nc1 [Example 20, 6-[4-(Benzylamino-methyl)-phenylamino]-nicotinamide] | 
> 3000 nM | > 5000 | > 4000 | NC(=O)c1ccc(Nc2ccc(CNCC3CCCCC3)cc2)nc1 [Example 21, 6-{4-[(Cyclohexylmethyl-amino)-methyl]-phenylamino}-nicotinamide] | 
> 3000 nM | > 5000 | > 4000 | NC(=O)c1ccc(Nc2ccc(CNCCc3ccccc3)cc2)nc1 [Example 22, 6-[4-(Phenethylamino-methyl)-phenylamino]-nicotinamide] | 
198 nM | 4020 | 2670 | CC(=O)Nc1ccc(Oc2ccc(CCNC(=O)OC(C)(C)C)cc2)cc1 [Example 24, {2-[4-(4-Acetylamino-phenoxy)-phenyl]-ethyl}-carbamic acid tert-butyl ester] | 
200 nM and 64.3 nM |  |  | CCCCCCNCCc1ccc(Oc2ccc(NC(C)=O)cc2)cc1 [Example 27, N-{4-[4-(2-Hexylamino-ethyl)-phenoxy]-phenyl}-acetamide] | 
26.9 nM | 469 | 150 | CC(=O)Nc1ccc(Oc2ccc(CCNCc3cccs3)cc2)cc1 [Example 28, N-[4-(4-{2-[(Thiophen-2-ylmethyl)-amino]-ethyl}-phenoxy)-phenyl]-acetamide] | 
5.06 nM | 62.5 | 731 | CC(=O)Nc1ccc(Oc2ccc(CCNCCCc3ccccc3)cc2)cc1 [Example 29, N-(4-{4-[2-(3-Phenyl-propylamino)-ethyl]-phenoxy}-phenyl)-acetamide] | 
18 nM | 260 | 163 | CC(=O)Nc1ccc(Oc2ccc(CCNCCC3CCCCC3)cc2)cc1 [Example 30, N-(4-{4-[2-(2-Cyclohexyl-ethylamino)-ethyl]-phenoxy}-phenyl)-acetamide] | 
> 2500 nM | > 5000 | > 4000 | CC(=O)Nc1ccc(Oc2ccc(CCNCc3ccco3)cc2)cc1 [Example 36, N-[4-(4-{2-[(Furan-2-ylmethyl)-amino]-ethyl}-phenoxy)-phenyl]-acetamide] | 
1750 nM | > 5000 | > 4000 | CC(=O)Nc1ccc(Oc2ccc(CCNCc3cccc(Cl)c3)cc2)cc1 [Example 37, N-(4-{4-[2-(3-Chloro-benzylamino)-ethyl]-phenoxy}-phenyl)-acetamide] | 
> 2500 nM | > 5000 | > 4000 | CC(=O)Nc1ccc(Oc2ccc(CCNC3CCCCC3)cc2)cc1 [Example 39, N-{4-[4-(2-Cyclohexylamino-ethyl)-phenoxy]-phenyl}-acetamide] | 
912 nM | > 5000 | > 4000 | CC(=O)Nc1ccc(Oc2ccc(CCNCc3ccccc3C)cc2)cc1 [Example 40, N-(4-{4-[2-(2-Methyl-benzylamino)-ethyl]-phenoxy}-phenyl)-acetamide] | 

Compound | Ki [1, 4] | Ki [2] [nM] | Ki [3] [nM] | Ki ([1]; Receptor Binding (Ki, nM) Mu) [nM]
6-{4-[(2-Pyridin-4-yl-ethylamino)-methyl]-phenylsulfanyl}-nicotinamide [Example 19] | 107 nM | 858 | 137 | 
CC(=O)c1ccc(Oc2ccc(CCNCc3ccccc3)cc2)cc1 [Example 5, 1-{4-[4-(2-Benzylamino-ethyl)-phenoxy]-phenyl}-ethanone] | 1310 nM | > 5000 | > 5000 | 
CC(=O)Oc1ccc(Oc2ccc(CCNCc3ccccc3)cc2)cc1 [Example 6, Acetic acid 4-[4-(2-benzylamino-ethyl)-phenoxy]phenyl ester] | 229 nM | 3250 | 1620 | 
NCCc1ccc(Nc2ccc(C(N)=O)cn2)cc1 [Example 16, 6-[4-(2-Amino-ethyl)-phenylamino]-nicotinamide] |  | 270 | 1020 | 45.4
CC(=O)Nc1ccc(Oc2ccc(CCN)cc2)cc1 [Example 25, N-{4-[4-(2-Amino-ethyl)-phenoxy]-phenyl}-acetamide] |  | 2510 | 3970 | 67.5
CC(=O)Nc1ccc(Oc2ccc(CCNCC(C)C)cc2)cc1 [Example 38, N-{4-[4-(2-Isobutylamino-ethyl)-phenoxy]-phenyl}-acetamide] | 1720 nM | > 5000 | > 4000 | 

— patent US8338611B2, “Opioid receptor antagonists” (Eli Lilly and Company, priority 2004, dated 2012)
